Data reported in patent publication US12351565B2, “Aromatic compound and preparation method therefor and use thereof” (SHANGHAI JIANHE PHARMACEUTICAL & TECHNOLOGY CO. LTD., priority 2018, dated 2025).

Tests used:
[1] = test system: C57 mice; assay: Forced swimming experiment, oral administration to mice; format: in vivo; settings: inhibition of immobility time, C57 mice
Procedure: 1 h and 24 h after a single oral administration of 20 mg/kg, forced swimming experiments were then carried out to investigate the effects of different compounds on depression-like behavior in C57 mice.
Experimental animals were 6-week aged C57 mice, male, C57 mice were purchased from Shanghai SLAC Laboratory Animal Co., Ltd., with a body weight of 20.45±0.19 g. Before the experiment, they arrived at the Animal Feeding Center of Shanghai Institute of Materia Medica, Chinese Academy of Sciences (Animal Production License: SCXK9[Shanghai]2004-0002, usage license: SYXK[Shanghai]2003-0029), and adapted for 3 days or more in animal facilities. They were bred at 6 animals/cage. The breeding environment was room temperature 23±0.2° C., with 12/12 hours alternation of day and night. Before the behavioral test, the animals should be moved to the behavioral test operation room 2 hours in advance to adapt to the environment and reduce their tension.
Preparation of the test product: each test compound was accurately weighed and dissolved in 0.9% NaCl solution, mixed thoroughly, and prepared into 1 mg/ml and 2 mg/ml solutions respectively, and set aside.
24 hours before the administration, the mice were placed in a cylindrical tank to adapt to the aquatic environment for 10 min. On the day of the behavioral test, the animals were respectively administered intragastrically once at 1 h and 24 h before the behavioral test. The mice were placed individually into a cylindrical glass tank with a height of 30 cm and a diameter of 20 cm. The water depth in the tank was 15 cm, so that the animals could not escape from the glass tank and their feet and tails could not touch the bottom of the tank, the water temperature was 23° C.-25° C. A 6 minute video was taken after the mouse entered into water. Since most animals were very active in the first two minutes, the immobility time in the following 4 minute were calculated (criterion of immobility: the mouse stops struggling in the water, stays still and has small limbs movement to maintain balance or to keep a floating state).
The antidepressant effect of a compound was evaluated by the ability of the compound to reduce the immobility time of the animal in the forced swimming test as compared with the blank group. Inhibition rate1 h(%)=immobility time(blank, 1 h)−immobility time(administration, 1 h)/immobility time(blank, 1 h)×100% Inhibition rate24h(%)=immobility time(blank, 24 h)−immobility time(administration, 24 h)/immobility time(blank, 24 h)×100%

[2] = In vivo pharmacokinetic experiment in mice; settings: C57 mice
Procedure: Healthy male C57 mice were randomly divided into groups with 3 mice in each group, and the test compounds were administrated intragastrically or by intravenous injection. See Table 6 below for specific arrangements:
(§1) Each test compound was dissolved in physiological saline to prepare a certain concentration of solution for administration.
(§2) One day before administration, the mice were fasted and allowed to drink freely for 12-14 h. The mice were fed 4 h after administration.
(§3) 0.030 mL of blood was took from each animal each time through the orbit, and anticoagulated with EDTAK2. The collection time points were as follows: in PO group, 5 min, 15 min, 30 min, 1 h, 2 h, 4 h, 6 h, 8 h, 24 h after administration of test substance; in IV group, 2 min, 5 min, 15 min, 30 min, 1 h, 2 h, 4 h, 6 h, 8 h, 24 h after administration of test substance. After blood samples were collected, they were placed on ice and centrifuged to separate the plasma within 30 minutes (centrifugation conditions: 5000 rpm, 10 minutes, 4° C.). The sample were stored at −80° C. before analysis.

[3] = In vivo pharmacokinetic experiment in rats; settings: SD rats
Procedure: Healthy male SD rats were randomly divided into groups with 3 rats in each group, and the test compounds were administrated intragastrically or by intravenous injection. See Table 8 below for specific arrangements:
as §1
as §3, with “One day before administration, the rats were fasted and allowed to drink freely for 12-14 h. The rats were fed 4 h after administration. 0.030 mL” for “0.030 mL”, “anticoagulated with EDTAK2 anticoagulation. The collection” for “anticoagulated with EDTAK2. The collection”, “group, 5 min, 10 min, 15” for “group, 5 min, 15”

[4] = Distribution in mouse brain tissue; format: in vivo, C57 mice
Procedure: Healthy male C57 mice were randomly divided into groups with 3 mice in each group, and the test compound was administrated intragastrically. See Table 10 below for specific arrangements:
as §1, §2
After the animals were bled, the brain tissue was collected. After washing, 50% ice methanol was added for homogenate at 1:4 (m/v). The collection time points was 10 min, 15 min, 30 min, 1 h, 2 h after administration of the test substance; 30.0 μL of tissue sample was taken (the sample was taken out from the refrigerator at −80° C., vortexed for 30 seconds after natural melting at room temperature) and added into a 1.5 mL centrifuge tube. 300.0 μL internal standard solution (30 ng/mL […] acetonitrile solution) was added, the mixture was vortex for 60 seconds and then centrifuged for 3 minutes (centrifugal force was 12000 rpm); 75 μL of the supernatant was taken and transferred to 96-well injection plate loaded with equal volume of water, shaken and mixed well, and subjected to LC-MS/MS analysis, wherein injection volume was 10 μL.

[5] = male, mouse, iv, 5 mg/kg i.v., plasma
[6] = male, mouse, po, 20 mg/kg p.o., plasma
[7] = male, rat, iv, 10 mg/kg i.v., plasma
[8] = male, rat, po, 10 mg/kg p.o., plasma
[9] = male, rat, po, 100 mg/kg p.o., plasma

## Cl.N[C@@]1(c2ccc(C(F)(F)F)cc2)CCC[C@@H](O)C1=O [Compound 50, (2R,6R)-2-amino-6-hydroxy-2-(4-(trifluoromethyl)phenyl)cyclohexane-1-one hydrochloride]
[1]; forced swimming 1 h after single oral (intragastric) 20 mg/kg
  1 h inhibition rate: 34.5 ± 3.1%
[1]; forced swimming 24 h after single oral (intragastric) 20 mg/kg
  24 h inhibition rate: 35.6 ± 3.6%
[2]; 5 mg/kg i.v., plasma
  AUC0-t: 3022 ngh/mL
  AUC0-∞: 3075 ngh/mL
[2]; 20 mg/kg p.o. vs 5 mg/kg i.v.
  F: 112%
[2]; 20 mg/kg p.o., plasma
  AUC0-t: 13548 ngh/mL
  AUC0-∞: 13624 ngh/mL
[2]; [5]
  MRT: 1.29 h
  half-life: 1.67 h
[2]; male, mouse, plasma, iv, 5 mg/kg i.v.
  clearance: 27.2 mL/min/kg
[2]; male, mouse, plasma, iv, 5 mg/kg i.v., read-out: Vss
  Vd: 2.1 L/kg
[2]; [6]
  Cmax: 8100 ng/mL
  MRT: 2.49 h
  Tmax: 6.6 min
  half-life: 4.16 h
[3]; 10 mg/kg i.v., plasma
  AUC0-t: 10976 ngh/mL
  AUC0-∞: 11306 ngh/mL
[3]; 10 mg/kg p.o.
  F: 82.5%
[3]; 10 mg/kg p.o., plasma
  AUC0-t: 9060 ngh/mL
  AUC0-∞: 9533 ngh/mL
[3]; 100 mg/kg p.o.
  F: 77.8%
[3]; 100 mg/kg p.o., plasma
  AUC0-t: 85478 ngh/mL
  AUC0-∞: 87916 ngh/mL
[3]; [7]
  MRT: 4.56 h
  half-life: 4.84 h
[3]; male, rat, plasma, iv, 10 mg/kg i.v.
  clearance: 14.8 mL/min/kg
[3]; male, rat, plasma, iv, 10 mg/kg i.v., read-out: Vss
  Vd: 4.03 L/kg
[3]; [8]
  Cmax: 3110 ng/mL
  MRT: 6.29 h
  Tmax: 0.31 h
  half-life: 5.73 h
[3]; [9]
  Cmax: 17300 ng/mL
  MRT: 5.47 h
  Tmax: 0.67 h
  half-life: 4.86 h
[4]; C57 mouse brain tissue, 20 mg/kg p.o.
  AUC0-∞: 18509 ng·h/g
[4]; male, brain, po, C57 mouse, 20 mg/kg p.o. (intragastrically), 10 min
  concentration at 10 min: 19400 ng/g
[4]; male, po, C57 mouse brain tissue, 20 mg/kg p.o.
  half-life: 1.44 h
